Measured values: patent publication US7119095B2, “Pharmaceutically active compounds and methods of use thereof” (Dana Farber Cancer Institute, priority 2001, dated 2006)

What was measured:
[1] = biological target: T1, T. gondii DHFR (Toxoplasma gondii, UniProt Q07422); assay type: biochemical; conditions: compounds 3a-k
T1 sequence (Q07422 1-610): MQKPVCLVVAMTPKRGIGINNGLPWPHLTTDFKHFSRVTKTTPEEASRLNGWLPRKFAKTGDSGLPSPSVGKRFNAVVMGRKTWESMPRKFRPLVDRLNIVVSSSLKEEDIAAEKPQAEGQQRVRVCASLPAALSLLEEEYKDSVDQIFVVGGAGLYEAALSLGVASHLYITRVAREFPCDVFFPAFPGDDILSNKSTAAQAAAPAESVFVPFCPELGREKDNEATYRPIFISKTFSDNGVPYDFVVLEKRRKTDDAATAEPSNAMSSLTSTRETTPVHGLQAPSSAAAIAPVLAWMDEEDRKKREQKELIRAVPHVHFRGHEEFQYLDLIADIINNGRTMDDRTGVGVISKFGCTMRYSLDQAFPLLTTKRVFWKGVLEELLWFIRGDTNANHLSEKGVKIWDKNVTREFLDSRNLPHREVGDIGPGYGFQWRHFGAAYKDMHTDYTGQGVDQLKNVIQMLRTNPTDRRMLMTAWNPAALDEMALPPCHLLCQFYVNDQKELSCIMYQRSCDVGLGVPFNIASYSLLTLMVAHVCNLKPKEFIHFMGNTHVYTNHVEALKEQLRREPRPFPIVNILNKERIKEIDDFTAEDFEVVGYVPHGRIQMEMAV

[2] = biological target: T2, M. avium DHFR (Mycobacterium avium, UniProt O30463); assay: Inhibition of M. avium DHFR (literature assay); assay type: biochemical; conditions: compounds 3a-k
T2 sequence (O30463 1-181): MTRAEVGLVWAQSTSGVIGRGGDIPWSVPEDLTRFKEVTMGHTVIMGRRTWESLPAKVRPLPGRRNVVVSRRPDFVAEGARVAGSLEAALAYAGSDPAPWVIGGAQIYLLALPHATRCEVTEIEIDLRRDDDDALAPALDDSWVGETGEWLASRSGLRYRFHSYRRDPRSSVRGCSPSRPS

[3] = biological target: T3, rat liver DHFR (Rattus norvegicus, UniProt Q920D2); assay: Inhibition of rat liver DHFR (literature assay); conditions: read-out: IC50 (μM) Rat liver, compounds 3a-k
T3 sequence (Q920D2 1-187): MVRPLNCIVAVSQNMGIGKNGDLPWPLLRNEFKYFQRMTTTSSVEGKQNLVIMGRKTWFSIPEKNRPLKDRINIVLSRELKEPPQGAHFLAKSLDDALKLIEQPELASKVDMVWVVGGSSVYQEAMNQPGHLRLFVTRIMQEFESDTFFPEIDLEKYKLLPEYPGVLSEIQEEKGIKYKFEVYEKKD

[4] = biological target: E. coli DHFR (Escherichia coli, UniProt P0ABQ4); conditions: Kuyper et al., J. Med. Chem. 1985; cited from earlier work
[5] = biological target: T1, T. gondii DHFR; conditions: reported in the literature; cited from earlier work

SMILES	IC50 [1] [µM]	IC50 [2] [µM]	IC50 [3] [µM]	Ki E. coli DHFR [4]	selectivity T. gondii versus rat liver DHFR [5]
CCCCCOc1ccc(OC)c(Cc2cnc(N)nc2N)c1 [Compound 3a, 2,4-Diamino-5-(2-methoxy-5-pentyloxybenzyl)pyrimidine]	6.5	0.31	44	–	–
CCCCCCOc1ccc(OC)c(Cc2cnc(N)nc2N)c1 [Compound 3b, 2,4-Diamino-5-(2-methoxy-5-hexyloxybenzyl)pyrimidine]	9.2	0.39	29	–	–
CCCCCCCOc1ccc(OC)c(Cc2cnc(N)nc2N)c1 [Compound 3c, 2,4-Diamino-5-(2-methoxy-5-heptyloxybenzyl)pyrimidine]	5	0.89	11	–	–
CCCCCCCCOc1ccc(OC)c(Cc2cnc(N)nc2N)c1 [Compound 3d, 2,4-Diamino-5-(2-methoxy-5-octyloxybenzyl)pyrimidine]	15	–	30	–	–
CCCCCCCCCOc1ccc(OC)c(Cc2cnc(N)nc2N)c1 [Compound 3e, 2,4-Diamino-5-(2-methoxy-5-nonyloxybenzyl)pyrimidine]	32	32	86	–	–
COc1ccc(OCCCC(=O)O)cc1Cc1cnc(N)nc1N [Compound 3f]	0.18	0.0048	2.6	–	–
COc1ccc(OCCCCCC(=O)O)cc1Cc1cnc(N)nc1N [Compound 3h]	0.48	0.15	17	–	–
COc1ccc(OCCCCCCC(=O)O)cc1Cc1cnc(N)nc1N [Compound 3i]	–	0.19	12	–	–
COc1ccc(OCCCCCCCC(=O)O)cc1Cc1cnc(N)nc1N [Compound 3j]	0.36	0.13	12	–	–
COc1ccc(OCCCCCCCCC(=O)O)cc1Cc1cnc(N)nc1N [Compound 3k]	0.43	–	12	–	–
COc1cc(Cc2cnc(N)nc2N)cc(OCCCCCC(=O)O)c1OC [Compound 18]	–	–	–	highest affinity	–
CCOc1cc(Cc2cnc(N)nc2N)cc(OCC)c1-n1cccc1 [Compound 19, epiroprim]	–	–	–	–	155
